The structures appear in SMILES notation.

The test system of the series is Multidrug resistance-associated protein 1. Kind of series: TP_TRANSPORTER: drug resistance in MRP1-expressing HEK293 cells. The conditions noted are these: human. The series is classed as functional, cell-based.
Turning to `COc1cc([C@@H]2c3cc4c(cc3[C@@H](O[C@@H]3O[C@@H]5CO[C@@H](C)O[C@H]5[C@H](O)[C@H]3O)[C@H]3COC(=O)[C@H]23)OCO4)cc(OC)c1O` [ETOPOSIDE], the Activity entry is “substrate []”.
On to `COc1cccc2c1C(=O)c1c(O)c3c(c(O)c1C2=O)C[C@@](O)(C(=O)CO)C[C@@H]3O[C@H]1C[C@H](N)[C@@H](O)[C@H](C)O1` [EPIRUBICIN], for which the Activity entry is “substrate []”.
Under `COc1cccc2c1C(=O)c1c(O)c3c(c(O)c1C2=O)C[C@@](O)(C(=O)CO)C[C@@H]3O[C@H]1C[C@H](N)[C@H](O)[C@H](C)O1` [DOXORUBICIN] stands “substrate []”; under `CC[C@]1(O)C[C@H]2CN(CCc3c([nH]c4ccccc34)[C@@](C(=O)OC)(c3cc4c(cc3OC)N(C=O)[C@H]3[C@@](O)(C(=O)OC)[C@H](OC(C)=O)[C@]5(CC)C=CCN6CC[C@]43[C@@H]65)C2)C1` [VINCRISTINE], “substrate []”.

The values above are taken from ChEMBL document CHEMBL2074511, “Molecular cloning and pharmacological characterization of rat multidrug resistance protein 1 (mrp1)” (Drug Metab Dispos, 2003).
